Patent US7585976B2, “Hemiasterlin derivatives and uses thereof” (priority 2002, dated 2009)

Assay: Screening profile of desired properties (growth inhibition, MDR, cytotoxicity, mouse serum stability, mitotic block reversibility, xenografts)
Details: properties (i)-(vii)
Experimental: In certain embodiments, compounds of the invention were tested for in vitro and in vivo activity. Screening methods included standard in vitro cell growth inhibition assays using a panel of human cancer cell lines, a U937 (ATCC accession number CRL 1593) mitotic block reversibility assay, mouse serum stability assay, MDR assay, and cytotoxicity assay. In certain other emdodiments, compounds of the invention were evaluated in tumor xenograft in vivo growth inhibition assays.

SMILES: C/C(=C\[C@H](C(C)C)N(C)C(=O)[C@@H](NC(=O)[C@H]1CCCCN1C(C)C(C)C)C(C)(C)C)C(=O)O (single isomer, unassigned) [ER-808662]
- desired properties (growth inhibition IC50, resistance ratio, cytotoxicity in non-dividing cells, mouse serum stability, reversibility ratio, tumor regression, T/C): exhibiting desired properties

SMILES: CN[C@H](C(=O)N[C@H](C(=O)N(C)[C@H](CN1CCC[C@H]1C(=O)N1CCC[C@H]1C(N)=O)C(C)C)C(C)(C)C)C(C)(C)c1ccccc1 [ER-807328]
- desired properties (growth inhibition IC50, resistance ratio, cytotoxicity in non-dividing cells, mouse serum stability, reversibility ratio, tumor regression, T/C): exhibiting desired properties

SMILES: CN[C@H](C(=O)N[C@H](C(=O)N(C)[C@H](/C=C(\C)C(=O)N1CCC[C@H]1C(=O)OC)C(C)C)C(C)(C)C)C(C)(C)c1ccccc1 [ER-805736]
- desired properties (growth inhibition IC50, resistance ratio, cytotoxicity in non-dividing cells, mouse serum stability, reversibility ratio, tumor regression, T/C): exhibiting desired properties

SMILES: CCC(C)N1CCCC[C@@H]1C(=O)N[C@H](C(=O)N(C)[C@H](/C=C(\C)C(=O)O)C(C)C)C(C)(C)C (some centres unmarked) [ER-808368]
- desired properties (growth inhibition IC50, resistance ratio, cytotoxicity in non-dividing cells, mouse serum stability, reversibility ratio, tumor regression, T/C): exhibiting desired properties

SMILES: CCC(C)N1CCCC[C@@H]1C(=O)N[C@H](C(=O)N(C)[C@H](/C=C(\C)C(=O)O)C(C)C)C(C)C (some centres unmarked) [ER-808824]
- desired properties (growth inhibition IC50, resistance ratio, cytotoxicity in non-dividing cells, mouse serum stability, reversibility ratio, tumor regression, T/C): exhibiting desired properties

SMILES: CCC(CC)(NC)C(=O)N[C@H](C(=O)N(C)[C@H](/C=C(\C)C(=O)O)C(C)C)C(C)(C)C [ER-807850]
- desired properties (growth inhibition IC50, resistance ratio, cytotoxicity in non-dividing cells, mouse serum stability, reversibility ratio, tumor regression, T/C): exhibiting desired properties

SMILES: C/C(=C\[C@H](C(C)C)N(C)C(=O)[C@@H](NC(=O)[C@H]1CCCCN1C)C(C)(C)C)C(=O)O [ER-807102]
- desired properties (growth inhibition IC50, resistance ratio, cytotoxicity in non-dividing cells, mouse serum stability, reversibility ratio, tumor regression, T/C): exhibiting desired properties

SMILES: CN[C@H](C(=O)N[C@H](C(=O)N(C)[C@H](/C=C(\C)C(=O)O)C(C)C)C(C)(C)C)C(C)(C)c1ccc(OCc2ccccc2)cc1 [ER-805913]
- desired properties (growth inhibition IC50, resistance ratio, cytotoxicity in non-dividing cells, mouse serum stability, reversibility ratio, tumor regression, T/C): exhibiting desired properties

SMILES: CN[C@H](C(=O)N[C@H](C(=O)N(C)[C@H](CN(C)CC(=O)N1CCC[C@H]1C(=O)OC)C(C)C)C(C)(C)C)C(C)(C)c1ccccc1 [ER-806925]
- desired properties (growth inhibition IC50, resistance ratio, cytotoxicity in non-dividing cells, mouse serum stability, reversibility ratio, tumor regression, T/C): exhibiting desired properties

SMILES: CC(C)OC(=O)[C@@H]1CCCN1C(=O)[C@@H]1CCCN1C[C@H](C(C)C)N(C)C(=O)[C@@H](NC(=O)C1CCCCN1C)C(C)(C)C (some centres unmarked) [ER-807904]
- desired properties (growth inhibition IC50, resistance ratio, cytotoxicity in non-dividing cells, mouse serum stability, reversibility ratio, tumor regression, T/C): exhibiting desired properties

SMILES: C/C(=C\[C@H](C(C)C)N(C)C(=O)[C@@H](NC(=O)[C@H]1CCCCN1C(C)C)C(C)(C)C)C(=O)O [ER-807974]
- desired properties (growth inhibition IC50, resistance ratio, cytotoxicity in non-dividing cells, mouse serum stability, reversibility ratio, tumor regression, T/C): exhibiting desired properties
